± gives the expanded uncertainty stated by the source.

The conditions of one series: 298.2 K; 101.3 kPa; Liquid; Buoyancy - hydrostatic balance.
Consider `Cc1cccc(O)c1` [3-methylphenol], for which the mass density came to 1034.5 ± 6 kg/m3.
The same measure, in the same setting: in the case of `CCCCOC(C)=O` [butyl ethanoate] it was 882.2 ± 6 kg/m3; in that of `CO` [methanol], 791 ± 6 kg/m3; in that of `O` [water], 997.2 ± 6 kg/m3.
In the case of `Cc1cc(C)cc(C)c1` [1,3,5-trimethylbenzene], the mass density is on record as 864 ± 6 kg/m3.
Same read-out and setting: as for `CC(=O)CC(C)C` [4-methylpentan-2-one], the figure is 799.8 ± 6 kg/m3.

The same series, now with this note: 298.2 K; 101.3 kPa; Metastable liquid; Buoyancy - hydrostatic balance.
Turning to `Cc1ccc(O)cc1` [4-methylphenol], the mass density is on record as 1034.4 ± 6 kg/m3.

Values taken from the NIST ThermoML archive (doi:10.1021/acs.jced.6b00513).
